Laboratory results from US20130085150A1, “ANALOGUES FOR THE TREATMENT OR PREVENTION OF FLAVIVIRUS INFECTIONS” (Vertex Pharmaceuticals Incorporated, priority 2010, published 2013).
Like-named read-outs stand apart in the source and are kept apart here.

System: HCV (Ib) RNA replication, Huh-ET replicon cells
Test: Cell-based luciferase reporter HCV (Ib) RNA replication assay
Conditions: Hepatitis C virus, 96 h
[1] = HCV 1b replicon, luciferase, 4 days, read-out: EC50_ib

Excerpt: Cell-Based Luciferase Reporter HCV (Ib) RNA Replication Assay Cell Culture
This cell line allows measurement of HCV RNA replication and translation by measuring luciferase activity. […] The Huh-ET cell line has the same features as those mentioned for Huh-5.2 cell line, except that ET cells are more robust and contain an adaptative mutation in the HCV NS4B gene instead of NS5A. Both cell lines are maintained in cultures at a sub-confluent level (<85%) as the level of replicon RNA is highest in actively proliferating cells. The culture media used for cell passaging consist of DMEM (Gibco BRL Laboratories, Mississauga, ON, Canada) supplemented with 10% foetal bovine serum with 1% penicilin/streptomycin, 1% glutamine, 1% sodium pyruvate, 1% non-essential amino acids, and 180 μg/ml of G418 final concentration. Cells are incubated at 37° C., in an atmosphere of 5% CO2 and passaged twice a week to maintain sub-confluence.
Approximately 3000 viable Huh-ET cells (100 μl) are plated per well in a white opaque 96-well microtiter plate. The cell culture media used for the assay is the same as described above except that it contains no G418 and no phenol red. After an incubation period of 3-4 hours at 37° C. in a 5% CO2 incubator, compounds (100 μl) are added at various concentrations. Cells are then further incubated for 4 days at 37° C. in a 5% CO2 incubator. Thereafter, the culture media is removed and cells are lysed by the addition of 95 μL of the luciferase buffer (luciferin substrate in buffered detergent). Cell lysates are incubated at room temperature and protected from direct light for at least 10 minutes. Plates are read for luciferase counts using a luminometer (Wallac MicroBeta Trilux, Perkin Elmer™, MA, USA).
Curves are fitted to data points using nonlinear regression analysis, and IC50s are interpolated from the resulting curve using GraphPad Prism software, version 2.0 (GraphPad Software Inc., San Diego, Calif., USA).

| Compound | EC50 (read-out: EC50_ib (uM)) | EC50 [1] |
| --- | --- | --- |
| COC(=O)N[C@H](C(=O)N1C[C@@H](C)CC1c1nc2cc(-c3ccc(-c4ccc5nc(C6C[C@H](C)CN6C(=O)[C@@H](NC(=O)OC)C(C)C)oc5c4)cc3)ccc2[nH]1)C(C)C (stereo partly shown) [Compound 47] | < 0.005 µM |  |
| c1cc(-c2ccc3nc([C@H]4CCCN4)cn3c2)ccc1-c1ccc2nc([C@H]3CCCN3)cn2c1 [Compound 3] |  | 0.005 to 5 µM |
| CC(C)(C)OC(=O)N1CCC[C@@H]1c1cn2cc(-c3ccc(-c4ccc5nc([C@H]6CCCN6C(=O)OC(C)(C)C)cn5c4)cc3)ccc2n1 [Compound 2] |  | 0.005 to 5 µM |
| CCCCN(Cc1nc2cc(C#Cc3ccc4[nH]c(C(=O)NC5CC5)cc4c3)ccc2[nH]1)C(=O)OCc1ccccc1 [Compound 1] |  | 0.005 to 5 µM |
